Assay results published in patent US7985586B2, “Oligodendrocyte precursor cell composition and methods of use” (Georgia Health Sciences University, priority 2008, dated 2011).
“Also recorded” adds a separate entry of the source.

Columns and labels:
[1] = cited from earlier work
EB-derived cells (EBCs) [2] = experiment: S18-induced apoptosis / elimination of EB-derived cell sub-populations and protection by S1P analogs; type: cell-based, mouse; details: for protection of S18-sensitive NPCs (NPC2) from apoptosis: added to medium with S18
Experimental: FIG. 4 illustrates making sphingolipid-enhanced neural stem cells (SENSe). FIG. 4A illustrates that mouse ES cells were differentiated to the attached EB stage and immunocytochemistry performed using antibodies against Oct-4 and S1P1. NPC2 cells show Oct-4(−) and S1P1(+). […] Expression of S1P1 protects them from S18-induced apoptosis if S1P or its analogs are added to the medium. FIG. 4B provides that there are three sub-populations of EB-derived cells (EBCs): 1) Residual pluripotent (Oct-4(+)/PAR-4(+)/S1P1(−) cells. […] They are not protected by S1P1; 2) NPC1 cells are Oct-4(−)/PAR-4(−)/S1P1(+) and represent nestin-expressing neural progenitors. […] FIG. 4C illustrates that NPC2 cells are stained for A2B5 epitope, a marker for oligodendrocyte precursor cells.
(§1) This protocol was modified using S18 or S1P (or its analogs) for incubation of differentiating ES cells at the EB stage prior to and after dissociation. After incubation with 50-100 μM S18 and/or 0.1-2 μM S1P or S1P analogs for 48 h, EBCs were dissociated and then immediately re-plated, and further incubated with NP medium supplemented with 50-100 μM S18 and 0.1-2 μM S1P or S1P analogs. NPCs were either transplanted into brain or spinal cord or in vitro differentiated in differentiation medium.
(§2) In vitro, treatment with a combination of S18 and S1P or S1P analogs (FTY720, VPC24191, SEW2871) increases the number of oligodendrocyte precursors (ODPCs) by about 20-fold (Table 1). […] This observation was unexpected and novel, because it has not been shown before that combined treatment with S18 and S1P analogs can enrich for ODPCs.

[3] = test system: oligodendrocyte precursors (ODPCs) from EB-derived cells; experiment: Generation of iODPCs from EB-derived cells treated with S18 and S1P or S1P analogs; type: cell-based, mouse; details: for effect on the number of ODPCs / ODPCs [% of total cells]: S1P 1 μM, VPC24191 or SEW2871 300 nM, FTY720 300 nM; for increase of the number of oligodendrocyte precursors (ODPCs): in vitro, combination with S18; for ODPCs [% of total cells]: in combination with S18, n=4 independent experiments
Experimental: Pre-implantation blastocyst-derived ES cells (ES-J1, Rosa26, E14) were grown on γ-irradiated feeder fibroblasts, and neural differentiation was induced by serum deprivation of EBs as previously described. Attached EBs were dissociated and EB-derived cells (EBCs) plated on polyornithin/laminin-coated dishes. At this stage, cells were grown in DMEM/F12 supplemented with N2 and FGF-2 (EB medium). EBCs acquire all characteristics of genuine NPCs, including expression of nestin. Sox1, and FGFR1. In the presence of FGF-2, NPCs can be dissociated and propagated at >80% homogeneity.
as §1
For incubation with S18 and S1P (or S1P) analogs add: 50-100 μM S18; 0.1-2 μM S1P or S1P analogs (FTY720, SEW2871, VPC24191 or related compounds) to EB and NP medium. The incubation time can vary from 24-72 h.
as §2

EB-derived cells (EBCs) [4] = details: stage of forming NPCs; ref [5]; cited from earlier work
primitive ectoderm cells = details: suspension EBs; ref [3]; cited from earlier work

Row | Structure (SMILES) | effect on the number of ODPCs [3] | increase of the number of oligodendrocyte precursors (ODPCs) [3] | ODPCs [% of total cells] ([3]; VPC23019 2 μM) | other results
1 | CCCCCCCCCCCCC/C=C/[C@@H](O)[C@H](CO)NC(C)=O [C2 ceramide, N-acetyl sphingosine] |  |  |  | water solubility compared with physiological ceramide species (e.g. C16 ceramide) [1]: several-fold higher
2 | CCCCCCCCc1ccc(CCC(N)(CO)CO)cc1 [FTY720, 2-amino-2-[2-(4-octylphenyl)ethyl]propane-1,3-diol] | elevate the number of ODPCs | about 20 fold |  | protection of S18-sensitive NPCs (NPC2) from apoptosis (EB-derived cells (EBCs) [2]): rescue S18-sensitive NPCs from apoptosis; also recorded: can be protected
3 | CCCCCCCCCCCCC/C=C/[C@@H](O)[C@@H](N)COP(=O)(O)O [S1P, sphingosine-1-phosphate] | elevate the number of ODPCs | about 20 fold | 12 +/− 3% | protection of S18-sensitive NPCs (NPC2) from apoptosis (EB-derived cells (EBCs) [2]): rescue S18-sensitive NPCs from apoptosis; also recorded: can be protected
4 | CCCCCCCC/C=C\CCCCCCCC(=O)NC(CO)CO [S18, N-(2-hydroxy-1-(hydroxymethyl)ethyl)-oleoylamide] |  |  |  | elimination of Oct-4(+) cells from differentiating ES cells (EB-derived cells (EBCs) [4]): eliminates Oct-4(+) cells; S18-induced apoptosis in NPC1 (Oct-4(−)/PAR-4(−)/S1P1(+)) cells (EB-derived cells (EBCs) [2]): do not undergo S18-induced apoptosis; elimination of teratoma-forming residual pluripotent (Oct-4(+)/PAR-4(+)/S1P1(−)) cells (EB-derived cells (EBCs) [2]; ES cell graft / EB-derived cells): specifically eliminate teratoma-forming cells; also recorded: are eliminated by S18; elimination of NPC2 (Oct-4(−)/PAR-4(+)/S1P1(+)) cells (EB-derived cells (EBCs) [2]; without S1P or FTY720): is also eliminated by S18; also recorded: are eliminated by S18; primitive ectoderm formation after ceramide depletion (primitive ectoderm cells): restores primitive ectoderm formation
5 | FC(F)(F)c1cccc(-c2noc(-c3cc(-c4ccccc4)c(C(F)(F)F)s3)n2)c1 [SEW2871] | elevate the number of ODPCs | about 20 fold | 18 +/− 3% | 
6 | CCCCCCCCc1cccc(NC(=O)[C@H](N)COP(=O)(O)O)c1 [VPC23019] |  |  |  | effect of S1P1 antagonist on the S1P and FTY720 effect ([3]; VPC23019 2 μM): inhibits the effect of S1P and FTY720
7 | CCCCCCCCc1ccc(NC[C@H](N)COP(=O)(O)O)cc1 [VPC24191] | elevate the number of ODPCs | about 20 fold | 28 +/− 5% | 
